This note sets out measurements from patent US10577308B2, “Sodium channel modulators” (The Florey Institute of Neuroscience and Mental Health, priority 2015, dated 2020).

Test [1] addresses hNav1.6 (Homo sapiens (Human), UniProt Q9UQD0). The test can be described thus: Automated patch clamp (IonWorks Quattro) block of hNav1.6 channels in CHO cells. It is filed as cell-based. From the text:
(§1) FIG. 1 depicts the voltage sequence used to measure inhibitory activity of compounds as described in Example 3. An automated patch clamp screening assay was used to measure the inhibitory effect (potency) of compounds in three conformational states of the sodium channel: (1) the tonic state (TP1); (2) the frequency-dependent (10 Hz) state (TP11) and (3) the inactivated state (TP12).
(§2) Test Protocol for Determining the Potency of Compounds on Nav1.2 and Nav1.6 Subtypes of Voltage-Gated Sodium Ion Channels Expressed in Mammalian Cells
(§3) Cell culture procedures: Chinese hamster ovary (CHO) cells were stably transfected with the cDNA sequence of either the human SCN2A or SCN8A genes to create hNav1.2 or hNav1.6 cells respectively. The cell lines were cultured in Ham's F-12 medium supplemented with 10% fetal bovine serum and antibiotics in a tissue incubator at 37° C. under a humidified air/CO2 mixture (95/5 v/v). On the day of the experiment, cells were washed twice with Hank's balanced salt solution, treated with trypsin, and resuspended in fresh culture media at a density of 4−6×10^6 cells in 20 ml. Immediately before placing in the IonWorks Quattro instrument, cells were washed in Hank's balanced salt solution to remove culture medium and re-suspended in 3 ml of Hank's balanced salt solution.
(§4) Automated patch clamp recordings of cells using the IonWorks Quattro Instrument: The assay used a 384 microwell plate, which enabled 20 compounds to be studied at four different concentrations in quadruplicate as well as allowing a vehicle control group and a positive control group using mexiletine at 8 different concentrations. Cells were added to the wells of the Population Patch Clamp planar electrode using a 48-channel pipettor in a volume of 6 μL, per well. After 5 minutes incubation at ambient temperature with compounds or vehicle, membrane currents were recorded using the patch clamp amplifier. The pulse pattern was repeated twice, before and after compound addition and peak current amplitudes were measured at three test pulses, TP1, TP11 and TP12 to measure Tonic Block, 10 Hz Frequency-dependent Block and Inactivation State Block, respectively.
(§5) Data analysis: Data acquisition and analyses were carried out using the IonWorks Quattro system operation software which uses an algorithm to correct data for leak currents. Concentration-response curves were fitted by non-linear least squares regression allowing calculation of an IC50 value (μM), being the concentration of the compound producing half-maximal inhibition.
(The patch-clamp technique gives a direct electrical read-out from membranes.)

For test [2], the target named is hNav1.2 (Homo sapiens (Human), UniProt Q99250). In words: Automated patch clamp (IonWorks Quattro) block of hNav1.2 channels in CHO cells. It is filed as cell-based.
Description: as §1, §2, §3, §4, §5

Setting [3] is: 10 Hz frequency-dependent block (TP11), read-out: IC50 Nav1.6 10 Hz block.
[4] abbreviates: Inactivated state block (TP12), read-out: IC50 Nav1.6 Inactivated state block.
[5] abbreviates: Tonic block (TP1), read-out: IC50 Nav1.6 Tonic block.
The mark [6] stands for this setting: 10 Hz frequency-dependent block (TP11), read-out: IC50 Nav1.2 10 Hz block.
The mark [7] stands for this setting: Inactivated state block (TP12), read-out: IC50 Nav1.2 Inactivated state block.
The mark [8] stands for this setting: Tonic block (TP1), read-out: IC50 Nav1.2 Tonic block.

Read-outs that look alike come from different tables or passages of the source.

hNav1.6, sequence (Q9UQD0 whole entry): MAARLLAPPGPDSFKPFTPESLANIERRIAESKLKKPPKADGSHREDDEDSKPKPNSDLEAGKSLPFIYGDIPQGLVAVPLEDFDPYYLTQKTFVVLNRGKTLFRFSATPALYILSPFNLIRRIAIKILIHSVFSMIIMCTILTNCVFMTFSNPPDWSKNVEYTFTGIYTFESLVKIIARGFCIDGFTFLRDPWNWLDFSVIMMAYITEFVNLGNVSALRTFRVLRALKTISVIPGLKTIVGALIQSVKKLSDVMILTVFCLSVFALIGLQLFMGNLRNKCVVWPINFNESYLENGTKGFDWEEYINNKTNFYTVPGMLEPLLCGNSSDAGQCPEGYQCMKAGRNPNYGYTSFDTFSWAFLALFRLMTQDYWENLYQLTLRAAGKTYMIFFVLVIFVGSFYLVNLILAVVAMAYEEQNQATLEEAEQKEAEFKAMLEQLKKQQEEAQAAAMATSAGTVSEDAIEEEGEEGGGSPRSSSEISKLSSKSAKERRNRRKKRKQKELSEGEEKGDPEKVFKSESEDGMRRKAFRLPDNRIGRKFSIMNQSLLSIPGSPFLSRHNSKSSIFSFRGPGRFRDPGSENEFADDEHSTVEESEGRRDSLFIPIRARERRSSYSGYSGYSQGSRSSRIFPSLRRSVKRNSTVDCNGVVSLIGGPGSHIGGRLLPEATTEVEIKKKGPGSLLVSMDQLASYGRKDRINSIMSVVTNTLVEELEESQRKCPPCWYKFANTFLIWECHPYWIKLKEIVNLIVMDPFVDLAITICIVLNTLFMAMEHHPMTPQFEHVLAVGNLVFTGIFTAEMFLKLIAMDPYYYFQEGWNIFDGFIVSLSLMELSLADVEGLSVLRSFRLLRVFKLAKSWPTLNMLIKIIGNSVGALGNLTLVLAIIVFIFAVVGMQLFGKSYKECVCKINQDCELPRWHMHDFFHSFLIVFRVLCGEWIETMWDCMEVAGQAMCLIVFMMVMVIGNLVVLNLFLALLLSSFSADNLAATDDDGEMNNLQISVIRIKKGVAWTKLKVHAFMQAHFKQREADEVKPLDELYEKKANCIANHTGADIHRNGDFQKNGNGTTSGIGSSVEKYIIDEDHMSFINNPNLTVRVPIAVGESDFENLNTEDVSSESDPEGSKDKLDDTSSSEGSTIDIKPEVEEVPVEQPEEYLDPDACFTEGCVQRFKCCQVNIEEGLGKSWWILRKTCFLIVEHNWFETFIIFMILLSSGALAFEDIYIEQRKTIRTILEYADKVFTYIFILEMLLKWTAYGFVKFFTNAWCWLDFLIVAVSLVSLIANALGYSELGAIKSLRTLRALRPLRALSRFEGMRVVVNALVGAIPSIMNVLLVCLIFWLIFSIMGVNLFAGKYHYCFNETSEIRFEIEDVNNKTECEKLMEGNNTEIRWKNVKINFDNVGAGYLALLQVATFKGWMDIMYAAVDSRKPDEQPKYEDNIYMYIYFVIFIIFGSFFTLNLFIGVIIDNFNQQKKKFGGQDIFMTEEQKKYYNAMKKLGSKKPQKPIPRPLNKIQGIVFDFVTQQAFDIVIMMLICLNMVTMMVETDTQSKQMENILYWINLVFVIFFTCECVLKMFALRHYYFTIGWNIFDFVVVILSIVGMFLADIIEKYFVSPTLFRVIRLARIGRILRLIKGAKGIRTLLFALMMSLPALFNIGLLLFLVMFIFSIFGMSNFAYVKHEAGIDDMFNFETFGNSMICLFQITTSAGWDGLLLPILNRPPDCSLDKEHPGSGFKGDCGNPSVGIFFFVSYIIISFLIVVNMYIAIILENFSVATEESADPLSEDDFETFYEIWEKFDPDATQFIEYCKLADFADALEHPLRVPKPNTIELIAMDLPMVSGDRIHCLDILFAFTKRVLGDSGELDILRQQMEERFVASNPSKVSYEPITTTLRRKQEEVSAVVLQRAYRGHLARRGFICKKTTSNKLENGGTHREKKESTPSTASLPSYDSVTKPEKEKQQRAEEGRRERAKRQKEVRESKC
hNav1.2, sequence (Q99250 whole entry): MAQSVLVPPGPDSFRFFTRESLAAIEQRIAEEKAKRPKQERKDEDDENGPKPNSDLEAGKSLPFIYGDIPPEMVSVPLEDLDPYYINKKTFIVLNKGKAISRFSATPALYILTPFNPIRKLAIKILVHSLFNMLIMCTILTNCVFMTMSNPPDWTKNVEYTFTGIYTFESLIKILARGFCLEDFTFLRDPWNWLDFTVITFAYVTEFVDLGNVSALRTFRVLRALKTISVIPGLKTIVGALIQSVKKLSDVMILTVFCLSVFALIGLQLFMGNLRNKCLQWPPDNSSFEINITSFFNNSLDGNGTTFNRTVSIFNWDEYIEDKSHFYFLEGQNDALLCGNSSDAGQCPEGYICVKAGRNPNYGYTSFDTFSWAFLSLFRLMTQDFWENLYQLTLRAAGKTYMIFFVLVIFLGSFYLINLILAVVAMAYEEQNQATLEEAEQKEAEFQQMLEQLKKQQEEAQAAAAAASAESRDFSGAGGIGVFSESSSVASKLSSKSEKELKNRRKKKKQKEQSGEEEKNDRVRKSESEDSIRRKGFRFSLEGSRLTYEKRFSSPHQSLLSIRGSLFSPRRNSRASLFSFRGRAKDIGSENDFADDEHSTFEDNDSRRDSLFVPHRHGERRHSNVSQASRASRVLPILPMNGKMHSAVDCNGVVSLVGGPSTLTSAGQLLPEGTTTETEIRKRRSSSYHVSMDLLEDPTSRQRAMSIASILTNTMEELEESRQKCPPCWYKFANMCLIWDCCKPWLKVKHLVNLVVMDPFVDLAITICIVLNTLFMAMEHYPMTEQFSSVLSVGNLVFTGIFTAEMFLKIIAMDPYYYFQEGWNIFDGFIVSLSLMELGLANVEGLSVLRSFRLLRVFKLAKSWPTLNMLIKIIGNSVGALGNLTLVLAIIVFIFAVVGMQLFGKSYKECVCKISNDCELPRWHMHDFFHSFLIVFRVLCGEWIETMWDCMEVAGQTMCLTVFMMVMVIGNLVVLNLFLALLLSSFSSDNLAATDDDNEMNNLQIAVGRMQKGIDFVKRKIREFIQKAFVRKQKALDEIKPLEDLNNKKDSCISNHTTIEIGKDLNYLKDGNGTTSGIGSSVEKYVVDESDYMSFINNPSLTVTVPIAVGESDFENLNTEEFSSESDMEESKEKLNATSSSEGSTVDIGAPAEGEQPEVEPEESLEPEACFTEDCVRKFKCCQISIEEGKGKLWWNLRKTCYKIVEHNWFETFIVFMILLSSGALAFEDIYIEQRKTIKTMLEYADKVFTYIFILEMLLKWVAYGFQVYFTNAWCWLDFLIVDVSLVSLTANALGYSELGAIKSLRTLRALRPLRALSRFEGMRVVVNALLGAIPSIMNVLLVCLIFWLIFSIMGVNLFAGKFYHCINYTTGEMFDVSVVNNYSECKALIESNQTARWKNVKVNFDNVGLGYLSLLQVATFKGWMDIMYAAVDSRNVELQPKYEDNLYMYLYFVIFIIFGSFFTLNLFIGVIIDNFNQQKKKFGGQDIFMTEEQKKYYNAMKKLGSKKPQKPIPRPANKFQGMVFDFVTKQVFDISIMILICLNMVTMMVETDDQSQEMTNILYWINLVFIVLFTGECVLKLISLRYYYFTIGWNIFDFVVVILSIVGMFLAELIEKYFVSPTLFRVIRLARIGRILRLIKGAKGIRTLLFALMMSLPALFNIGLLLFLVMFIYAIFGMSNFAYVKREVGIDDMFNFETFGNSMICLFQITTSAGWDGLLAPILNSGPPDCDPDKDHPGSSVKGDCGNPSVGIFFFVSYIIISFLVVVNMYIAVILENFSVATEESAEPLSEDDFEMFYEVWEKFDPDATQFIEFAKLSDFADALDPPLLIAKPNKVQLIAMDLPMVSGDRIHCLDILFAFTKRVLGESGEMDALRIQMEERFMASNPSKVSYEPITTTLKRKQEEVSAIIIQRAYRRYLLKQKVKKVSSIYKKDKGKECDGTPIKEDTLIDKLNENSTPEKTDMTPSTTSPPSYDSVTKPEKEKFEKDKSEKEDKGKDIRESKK

Take `Cc1nn(C)c(C)c1OCCCNC(c1ccccn1)c1ccccn1` [Compound 644, N-(Dipyridin-2-ylmethyl)-3-(1,3,5-trimethyl-1H-pyrazol-4-yloxy)propan-1-amine]: the half-maximal inhibitory concentration (IC50) in test [1] (setting [3]), in test [1] (setting [4]), in test [1] (setting [5]), in test [2] (setting [6]), in test [2] (setting [7]) and in test [2] (setting [8]) was greater than 10 µM in each case.
As for `Cc1cccc(C)c1OCCCNCc1ccc(O)cc1` [Compound 550, 4-((3-(2,6-Dimethylphenoxy)propylamino)methyl)phenol], the IC50 in test [1] (setting [3]) is 4.8 µM; in test [1] (setting [4]), 2.2 µM; in test [1] (setting [5]), greater than 10 µM; in test [2] (setting [6]) it was 5.1 µM; in test [2] (setting [7]), 2.2 µM; in test [2] (setting [8]), greater than 10 µM.
On to `Cc1cccc(C)c1OCCCNCc1ccc(-c2ccccc2)cc1` [Compound 522, N-(Biphenyl-4-ylmethyl)-3-(2,6-dimethylphenoxy)propan-1-amine], for which the IC50 in test [1] (setting [3]), in test [1] (setting [4]), in test [1] (setting [5]), in test [2] (setting [6]), in test [2] (setting [7]) and in test [2] (setting [8]) was greater than 1000 µM throughout.
For `CC(=O)Nc1ccc(CNCCCOc2c(C)cccc2C)cc1` [Compound 542, N-(4-((3-(2,6-Dimethylphenoxy)propylamino)methyl)phenyl)acetamide], the IC50 in test [1] (setting [3]) is greater than 10 µM; in test [1] (setting [4]), 7.1 µM; in test [1] (setting [5]), greater than 10 µM; in test [2] (setting [6]) it was greater than 10 µM; in test [2] (setting [7]), 5 µM; in test [2] (setting [8]), greater than 10 µM.
`COc1ccc(CNCCCOc2c(C)cccc2C)cc1` [Compound 520, 3-(2,6-Dimethylphenoxy)-N-(4-methoxybenzyl)propan-1-amine]: the IC50 in test [1] (setting [3]) came to 2.6 µM; in test [1] (setting [4]), 1.5 µM; in test [1] (setting [5]), 4.9 µM; in test [2] (setting [6]), 2.1 µM; in test [2] (setting [7]), 1 µM; in test [2] (setting [8]), 6.3 µM.
Regarding `Cc1cccc(C)c1OCCCNCc1ccc(C#N)cc1` [Compound 519, 4-((3-(2,6-Dimethylphenoxy)propylamino)methyl)benzonitrile], the IC50 was 3.4 µM in test [1] (setting [3]); 1.8 µM in test [1] (setting [4]); 5.6 µM in test [1] (setting [5]); 8.3 µM in test [2] (setting [6]); 2.1 µM in test [2] (setting [7]); greater than 10 µM in test [2] (setting [8]).
Take `Cc1cccc(C)c1OCCCNCc1ccccc1C(F)(F)F` [Compound 534, 3-(2,6-Dimethylphenoxy)-N-(2-(trifluoromethyl)benzyl)propan-1-amine]: the IC50 in test [1] (setting [3]) is 4.1 µM; in test [1] (setting [4]), 2.3 µM; in test [1] (setting [5]), 8.1 µM; in test [2] (setting [6]), 7.1 µM; in test [2] (setting [7]), 2.1 µM; in test [2] (setting [8]) it was greater than 10 µM.
Take `COc1cccc(CNCCCOc2c(C)cccc2C)c1` [Compound 525, 3-(2,6-Dimethylphenoxy)-N-(3-methoxybenzyl)propan-1-amine]: the 50% inhibitory concentration (IC50) amounted to 3.2 µM in test [1] (setting [3]); 1.8 µM in test [1] (setting [4]); 7.9 µM in test [1] (setting [5]); 1.5 µM in test [2] (setting [6]); 0.4 µM in test [2] (setting [7]); 4.8 µM in test [2] (setting [8]).
For “3-(2,6-Dimethylphenoxy)-N-(3-(trifluoromethyl)benzyl)propan-1-amine [Compound 533]”, the IC50 in test [1] (setting [3]) was 4.3 µM; in test [1] (setting [4]) it was 2.3 µM; in test [1] (setting [5]), 7.1 µM; in test [2] (setting [6]), 6.1 µM; in test [2] (setting [7]), 2 µM; in test [2] (setting [8]), roughly 10.1 µM.
Turning to `Cc1cccc(C)c1OCCCNCc1ccccc1-c1ccccc1` [Compound 536, N-(Biphenyl-2-ylmethyl)-3-(2,6-dimethylphenoxy)propan-1-amine], the IC50 is 3.7 µM in test [1] (setting [3]); 1.3 µM in test [1] (setting [4]); 21.4 µM in test [1] (setting [5]); 1.7 µM in test [2] (setting [6]); 0.4 µM in test [2] (setting [7]); greater than 30 µM in test [2] (setting [8]).

One may read the IC50 as the midpoint of a concentration-inhibition curve.
